{"source": "patent US20230157945A1", "about": "“Nasal Hygiene Method and Formulation” (ACTUAL NATURAL HEALTH & WELLNESS PRODUCTS, INC., priority 2018, published 2023)", "tested_on": "human nasal passage", "assay": "testing of the nasal spray / nasal wash composition applied to the nasal passages", "type": "in vivo", "conditions": "CBD at 0.3% by weight in the composition", "description": "A homogenized mixture of water, cannabinoid, an olfactory stimulant, and inorganic salt when applied to a nasal passage as a mist delivering 0.08 mL to 0.18 mL in each nostril is effective as a nasal wash. A solubilizing agent particularly suited for cannabinoids may also be added, such as those disclosed in U.S. patent application Ser. No. 17/527,465, filed Nov. 16, 2021.\nPracticing nasal hygiene by the use of the method of applying to a person's nostril a mist of nasal wash composition comprising the product of compounding under homogenizing conditions water, an amount of a source of chlorine dioxide, 0.1 to 1% by weight cannabinoid; 0.1 to 3% by weight of olfactory stimulant; and 0 to 5% by weight of at least one fixative compound; and blowing air out of the nostril. and composition of the invention, nasal irritation is reduced. […]\nIt is a feature of the invention that the practice of nasal hygiene according to the invention requires only moderate and convenient quantities of the composition. It is sufficient for the user to place a convenient quantity of the composition, which can range from about 0.3 to 3 milliliters, into each nostril and retain it for a holding period which can range from a fraction of a minute to about ten minutes or as long as comfortable, and then remove it as by blowing the nose. […]", "data": [{"compound": "C=C(C)[C@@H]1CCC(C)=C[C@H]1c1c(O)cc(CCCCC)cc1O", "note": "[CBD, Cannabidiol]", "values": [{"measurement": "pain relief", "value": "effective pain relief"}]}]}
